In PMC8117417, “Novel Trifluoromethyl Pyrimidinone Compounds With Activity Against Mycobacterium tuberculosis” (Frontiers in Chemistry, 2021):
In brackets after ≈: the same amount, converted by molar mass.

How the values were obtained:
[1] = test system: M. tuberculosis H37Rv; assay: Minimum inhibitory concentration (IC90) against fluorescent M. tuberculosis in liquid culture; conditions: for IC90: read-out: MTB IC90
[2] = test system: HepG2 human liver cells; assay: Cytotoxicity against HepG2 cells (CellTiter-Glo); type: cell-based; conditions: concentration required to inhibit growth of HepG2 cells by 50%, 72 h exposure
Description: Cytotoxicity was measured after 72 h of compound exposure at 37°C and 5% CO2 using CellTiter-Glo (Promega).

[3] = concentration required to inhibit M. tuberculosis growth by 90%, aerobic culture, 5 days, 7H9-OADC-Tw
[4] = MTB IC90 assay, Figure 1 primary hits and reference drugs in this assay

| Compound | melting point | IC90 [1, 3] | IC50 ([2]; Homo sapiens, HepG2, 72 h) | further results |
| --- | --- | --- | --- | --- |
| Cc1c(C(F)(F)F)nc(-c2ccccc2OC(F)(F)F)[nH]c1=O [Compound 44, 5-Methyl-2-(2-(Trifluoromethoxy)Phenyl)-6-(Trifluoromethyl)Pyrimidin-4(3H)-One] | 167 to 168 °C | > 20 µM | > 100 µM |  |
| O=c1[nH]c(-c2ccccn2)nc(C(F)(F)F)c1CC1CC1 [Compound 11] |  | 7.9 ± 2.1 µM | 11 ± 4.7 µM | MIC [1, 4]: 7.9 ± 2.1 µM (≈ 2.33 µg/mL) |
| Cc1c(C(F)(F)F)nc(-c2ccccc2O)[nH]c1=O [Compound 46, 2-(2-Hydroxyphenyl)-5-Methyl-6-(Trifluoromethyl)Pyrimidin-4(3H)-One] | 270 to 271 °C | > 20 µM | 44 ± 7.8 µM |  |
| Cc1ccccc1-c1nc(C(F)(F)F)cc(=O)[nH]1 [Compound 30, 2-(o-Tolyl)-6-(Trifluoromethyl)Pyrimidin-4(3H)-One] | 155 to 156 °C | > 20 µM | > 100 µM |  |
| CC(C)Cc1c(C(F)(F)F)nc(-c2ccccn2)[nH]c1=O [Compound 14] |  | 5.8 ± 1.3 µM | 7.5 ± 1.3 µM | MIC [1, 4]: 5.8 ± 1.3 µM (≈ 1.72 µg/mL) |
| Cc1nc(-c2ccccn2)[nH]c(=O)c1C [Compound 49, 5,6-Dimethyl-2-(Pyridin-2-yl)Pyrimidin-4(3H)-One] |  | > 20 µM | 88 ± 6.9 µM |  |
| O=c1cc(C(F)(F)F)nc(-c2ccccc2O)[nH]1 [Compound 31, 2-(2-Hydroxyphenyl)-6-(Trifluoromethyl)Pyrimidin-4(3H)-One] | 236 to 238 °C | > 20 µM | 79 ± 7.8 µM |  |
| Cc1c(C(F)(F)F)nc(-c2ccccc2Cl)[nH]c1=O [Compound 37, 2-(2-Chlorophenyl)-5-Methyl-6-(Trifluoromethyl)Pyrimidin-4(3H)-One] | 165 to 167 °C | > 20 µM | 86 ± 24 µM |  |
| 5-Cyclopentyl-2-(Pyridin-2-yl)-6-(Trifluoromethyl)Pyrimidin-4(3H)-One [Compound 57] |  | 10 ± 2.6 µM |  | IC50 [2]: 5.9 ± 0.57 µM |
| O=c1[nH]c(-c2ccccn2)nc(C(F)(F)F)c1Cc1ccccc1 [Compound 52, 5-Benzyl-2-(Pyridin-2-yl)-6-(Trifluoromethyl)Pyrimidin-4(3H)-One] | 173 to 174 °C | 2.8 ± 0.78 µM | 7.3 ± 4.2 µM |  |
| Cc1cccc(C)c1-c1nc(C(F)(F)F)c(C)c(=O)[nH]1 [Compound 43, 2-(2,6-Dimethylphenyl)-5-Methyl-6-(Trifluoromethyl)Pyrimidin-4(3H)-One] | 174 to 175 °C | > 20 µM | > 100 µM | MTB IC90 [1, 3]: no antibacterial activity; HepG2 IC50 [2]: no cytotoxicity |
| COc1c(C(F)(F)F)nc(-c2ccccn2)[nH]c1=O [Compound 56, 5-Methoxy-2-(Pyridin-2-yl)-6-(Trifluoromethyl)Pyrimidin-4(3H)-One] |  | 6.1 ± 0.26 µM | 5 ± 0.82 µM |  |
| O=c1cc(C(F)(F)F)nc(-c2ccccn2)[nH]1 [Compound 16, 2-(Pyridin-2-yl)-6-(Trifluoromethyl)Pyrimidin-4(3H)-One] |  | 4.9 ± 0.79 µM | > 100 µM | HepG2 IC50 [2]: lacked cytotoxicity |
| O=c1[nH]c(-c2ccccn2)nc(C(F)(F)F)c1C1CCCCC1 [Compound 58, 5-Cyclohexyl-2-(Pyridin-2-yl)-6-(Trifluoromethyl)Pyrimidin-4(3H)-One] | 220 to 221 °C | 4.1 ± 0.28 µM | 2.9 ± 0.28 µM |  |
| Cc1cnc(-c2ccccn2)[nH]c1=O [Compound 50, 5-Methyl-2-(Pyridin-2-yl)Pyrimidin-4(3H)-One] | 148 to 149 °C | > 20 µM | 50 ± 13 µM |  |
| COc1cccnc1-c1nc(C(F)(F)F)c(C)c(=O)[nH]1 [Compound 39, 2-(3-Methoxypyridin-2-yl)-5-Methyl-6-(Trifluoromethyl)Pyrimidin-4(3H)-One] | 164 to 165 °C | > 20 µM | > 100 µM |  |
| Cc1c(C(F)(F)F)nc(C2CCCCC2)[nH]c1=O [Compound 40, 2-Cyclohexyl-5-Methyl-6-(Trifluoromethyl)Pyrimidin-4(3H)-One] | 169 to 170 °C | > 20 µM | > 100 µM |  |
| CCOC(=O)CCCc1c(C(F)(F)F)nc(-c2ccccn2)[nH]c1=O [Compound 12] |  | 3.1 ± 0.57 µM | 10 ± 4.3 µM | MIC [1, 4]: 3.1 ± 0.57 µM (≈ 1.1 µg/mL) |
| CCCc1c(C(F)(F)F)nc(-c2ccccn2)[nH]c1=O [Compound 13] |  | 10 ± 1.3 µM | 12 ± 1.4 µM | MIC [1, 4]: 10 ± 1.3 µM (≈ 2.83 µg/mL) |
| CC[C@@H](CO)NCCN[C@@H](CC)CO [ethambutol, reference compound] |  |  |  | MIC [1, 4]: 3.3 ± 0.4 µM (≈ 0.674 µg/mL) |
| Cc1c(C(F)(F)F)nc(-c2ncccc2Cl)[nH]c1=O [Compound 38, 2-(3-Chloropyridin-2-yl)-5-Methyl-6-(Trifluoromethyl)Pyrimidin-4(3H)-One] |  | > 20 µM | > 100 µM |  |
| CO[C@H]1/C=C/O[C@@]2(C)Oc3c(C)c(O)c4c(O)c(c(/C=N/N5CCN(C)CC5)c(O)c4c3C2=O)NC(=O)/C(C)=C\C=C\[C@H](C)[C@H](O)[C@@H](C)[C@@H](O)[C@@H](C)[C@H](OC(C)=O)[C@@H]1C [rifampicin, reference compound] |  |  |  | MIC ([1]; reference drug in this assay): 0.008 ± 0.0002 µM (≈ 0.00658 µg/mL) |
